Experimental data as given in ChEMBL document CHEMBL1201862, “PubChem BioAssay data set” (2004).
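96-well plates; 48 h exposure; 5 concentrations. Endpoints by linear interpolation between flanking doses. Not reached: highest tested concentration assigned. GI50 = concentration required for 50% inhibition of growth.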 The source made the active and inactive calls. Cut-off read from the data, not from the text of the source: active = GI50 up to about 1.1 µM and inactive = higher.

Columns and labels:
Experiment in all cases: inhibition of tumour cell growth, NCI panel, 48 h
786-0 = system: 786-0
A498 = system: A498
A549 = system: A549
HCT-116 = system: HCT-116
HCT-15 = system: HCT-15
K562 = system: K562
KM12 = system: KM12
OVCAR-8 = system: OVCAR-8
RXF 393 = system: RXF 393
SF-539 = system: SF-539
SNB-19 = system: SNB-19
SNB-75 = system: SNB-75
SR = system: SR
SW-620 = system: SW-620
TK-10 = system: TK-10

| SMILES | GI50 (786-0) | GI50 (A498) | GI50 (A549) | GI50 (HCT-116) | GI50 (HCT-15) [µM] | GI50 (K562) | GI50 (KM12) | GI50 (OVCAR-8) | GI50 (RXF 393) | GI50 (SF-539) | GI50 (SNB-19) | GI50 (SNB-75) | GI50 (SR) | GI50 (SW-620) | GI50 (TK-10) |
| --- | --- | --- | --- | --- | --- | --- | --- | --- | --- | --- | --- | --- | --- | --- | --- |
| C(=N\Nc1ccccc1)/c1nc2ccccc2nc1/C=N/Nc1ccccc1 | 15.6 µM (inactive) | 16.6 µM (inactive) | 14.3 µM (inactive) | 12.7 µM (inactive) | 4.39 | 7.6 µM (inactive) | 13 µM (inactive) | 6.75 µM (inactive) | 16.3 µM (inactive) | 14.8 µM (inactive) | 18.9 µM (inactive) | 12.2 µM (inactive) | 19.9 µM (inactive) | 14.9 µM (inactive) | 15.8 µM (inactive) |
| COc1ccc(C[C@@H]2Cc3cc(OC)c(OC)cc3CN2C)cc1 | > 100 µM (inactive) | > 100 µM (inactive) | > 100 µM (inactive) | – | > 100 | > 100 µM (inactive) | > 100 µM (inactive) | > 100 µM (inactive) | – | – | > 100 µM (inactive) | > 100 µM (inactive) | – | > 100 µM (inactive) | > 100 µM (inactive) |
| CN(C)c1ccc(-c2cc(O)c3cc4c(cc3n2)OCO4)cc1 | > 100 µM (inactive) | > 100 µM (inactive) | > 100 µM (inactive) | > 100 µM (inactive) | > 100 | > 100 µM (inactive) | – | > 100 µM (inactive) | > 100 µM (inactive) | > 100 µM (inactive) | > 100 µM (inactive) | 4.33 µM (inactive) | > 100 µM (inactive) | > 100 µM (inactive) | > 100 µM (inactive) |
| C=CCC1(CC)C(=O)NC(=O)NC1=O [ETALLOBARBITAL] | > 100 µM (inactive) | – | > 100 µM (inactive) | > 100 µM (inactive) | > 100 | > 100 µM (inactive) | > 100 µM (inactive) | > 100 µM (inactive) | > 100 µM (inactive) | > 100 µM (inactive) | > 100 µM (inactive) | > 100 µM (inactive) | > 100 µM (inactive) | > 100 µM (inactive) | > 100 µM (inactive) |
| COc1cc(OC)c(C2CC=Cc3c(OC)cc(OC)c(OC)c32)cc1OC (centres undefined) | > 100 µM (inactive) | > 100 µM (inactive) | > 100 µM (inactive) | > 100 µM (inactive) | > 100 | > 100 µM (inactive) | > 100 µM (inactive) | > 100 µM (inactive) | > 100 µM (inactive) | > 100 µM (inactive) | – | > 100 µM (inactive) | > 100 µM (inactive) | > 100 µM (inactive) | > 100 µM (inactive) |
| CCCCC1(C)C=C/C(=C2/C(=O)O/C(=C\C(=O)O)C2=O)O1 (centres undefined) | > 100 µM (inactive) | > 100 µM (inactive) | > 100 µM (inactive) | > 100 µM (inactive) | > 100 | > 100 µM (inactive) | > 100 µM (inactive) | > 100 µM (inactive) | – | > 100 µM (inactive) | > 100 µM (inactive) | > 100 µM (inactive) | > 100 µM (inactive) | > 100 µM (inactive) | > 100 µM (inactive) |
| CCOC(=O)/C(C#N)=C\C=C1/C=CN=C2NCCN21 | > 100 µM (inactive) | – | > 100 µM (inactive) | > 100 µM (inactive) | > 100 | > 100 µM (inactive) | > 100 µM (inactive) | > 100 µM (inactive) | 99.5 µM (inactive) | > 100 µM (inactive) | > 100 µM (inactive) | 14.4 µM (inactive) | > 100 µM (inactive) | > 100 µM (inactive) | > 100 µM (inactive) |
| CCOP(=O)(Cc1ccc(CP(=O)(OCC)OCC)n1C)OCC | > 100 µM (inactive) | – | > 100 µM (inactive) | – | > 100 | > 100 µM (inactive) | > 100 µM (inactive) | > 100 µM (inactive) | > 100 µM (inactive) | > 100 µM (inactive) | > 100 µM (inactive) | > 100 µM (inactive) | – | > 100 µM (inactive) | > 100 µM (inactive) |
| Cc1cccc(N2C(=O)C(=O)C(c3nc4ccccc4s3)/C(=N/NC(=S)NN)C2=O)c1C (centres undefined) | > 100 µM (inactive) | > 100 µM (inactive) | – | > 100 µM (inactive) | > 100 | > 100 µM (inactive) | > 100 µM (inactive) | > 100 µM (inactive) | > 100 µM (inactive) | > 100 µM (inactive) | > 100 µM (inactive) | > 100 µM (inactive) | – | > 100 µM (inactive) | > 100 µM (inactive) |
| O=[N+]([O-])c1cccc(C2ON2C2CCCCC2)c1 (centres undefined) | 17.4 µM (inactive) | 27.4 µM (inactive) | 30.1 µM (inactive) | 13.5 µM (inactive) | 16.9 | 14.4 µM (inactive) | 8.81 µM (inactive) | 17.6 µM (inactive) | – | 22.5 µM (inactive) | 29.1 µM (inactive) | 38.5 µM (inactive) | 2.4 µM (inactive) | 10 µM (inactive) | 30.3 µM (inactive) |
| Cc1cccc(C)c1CO | > 100 µM (inactive) | – | > 100 µM (inactive) | > 100 µM (inactive) | > 100 | > 100 µM (inactive) | > 100 µM (inactive) | > 100 µM (inactive) | > 100 µM (inactive) | > 100 µM (inactive) | > 100 µM (inactive) | > 100 µM (inactive) | > 100 µM (inactive) | > 100 µM (inactive) | – |
| Cc1ccc(C2=CC(=O)c3ccccc3C2=O)n1-c1ccccc1 | > 100 µM (inactive) | – | > 100 µM (inactive) | 62.1 µM (inactive) | – | 53 µM (inactive) | 43.1 µM (inactive) | > 100 µM (inactive) | > 100 µM (inactive) | 89.9 µM (inactive) | 35.6 µM (inactive) | > 100 µM (inactive) | – | > 100 µM (inactive) | > 100 µM (inactive) |
| O=c1c2cc(Br)ccc2nc(-c2ccccc2Cl)n1NCC1(O)OCC(O)C(O)C1O (centres undefined) | > 100 µM (inactive) | > 100 µM (inactive) | > 100 µM (inactive) | > 100 µM (inactive) | > 100 | > 100 µM (inactive) | > 100 µM (inactive) | > 100 µM (inactive) | > 100 µM (inactive) | – | > 100 µM (inactive) | > 100 µM (inactive) | 35.6 µM (inactive) | > 100 µM (inactive) | – |
| CN(C)c1ccc2c(NCCCCCCNc3ccnc4cc(N(C)C)ccc34)ccnc2c1 | 20.8 µM (inactive) | 35.1 µM (inactive) | > 100 µM (inactive) | 6.55 µM (inactive) | > 100 | 2.74 µM (inactive) | 8.26 µM (inactive) | 7.29 µM (inactive) | 16 µM (inactive) | 21.5 µM (inactive) | 0.605 µM (active) | – | 7.73 µM (inactive) | 23.3 µM (inactive) | 12.5 µM (inactive) |
| CCCCCC/C(CC(=O)CCC(=O)NCCc1ccccc1)=N\Nc1ccc([N+](=O)[O-])cc1[N+](=O)[O-] | > 100 µM (inactive) | 79.8 µM (inactive) | 87.7 µM (inactive) | 36.7 µM (inactive) | 69.3 | 38.1 µM (inactive) | 67.8 µM (inactive) | 89.3 µM (inactive) | > 100 µM (inactive) | > 100 µM (inactive) | > 100 µM (inactive) | – | 20.6 µM (inactive) | 68.1 µM (inactive) | > 100 µM (inactive) |
| CC(C)(C)[Si](C)(C)O/N=C\c1ccc(O[Si](C)(C)C(C)(C)C)cc1 | 38.5 µM (inactive) | 52.4 µM (inactive) | 92.7 µM (inactive) | 24.2 µM (inactive) | 33.3 | 45.9 µM (inactive) | > 100 µM (inactive) | 62.8 µM (inactive) | 24.5 µM (inactive) | 42.5 µM (inactive) | 72.4 µM (inactive) | 72.1 µM (inactive) | – | > 100 µM (inactive) | > 100 µM (inactive) |
| CC(/C(=N/NC(=O)C(N)=O)c1c(Cl)ccc(Cl)c1O)C1(O)C(=O)Nc2ccccc21 (centres undefined) | 57 µM (inactive) | 17.8 µM (inactive) | 50.2 µM (inactive) | 41 µM (inactive) | 34.1 | 31 µM (inactive) | 30.4 µM (inactive) | 29.7 µM (inactive) | 55.3 µM (inactive) | 32 µM (inactive) | 72.4 µM (inactive) | 28.6 µM (inactive) | – | 41.7 µM (inactive) | 46.9 µM (inactive) |
| OCc1c[te]c(-c2ccccc2)c1 | > 100 µM (inactive) | 92.3 µM (inactive) | 63.2 µM (inactive) | 17.5 µM (inactive) | 20.2 | 38.5 µM (inactive) | 80.5 µM (inactive) | 34.4 µM (inactive) | 42.2 µM (inactive) | 28.4 µM (inactive) | – | 44.5 µM (inactive) | – | > 100 µM (inactive) | > 100 µM (inactive) |
| CCOc1ccc(/N=N/c2ccc3oc(=O)c(/C(C)=N/NC(=O)CC(=O)Nc4cccc(OC)c4)cc3c2)cc1 | 10.5 µM (inactive) | – | 28.2 µM (inactive) | 10.2 µM (inactive) | 30.3 | 7.96 µM (inactive) | 20.8 µM (inactive) | 18.7 µM (inactive) | 17.3 µM (inactive) | 17.2 µM (inactive) | 12.2 µM (inactive) | – | 2.64 µM (inactive) | 21.4 µM (inactive) | 28.3 µM (inactive) |
| O=S(=O)(OI(OI(OS(=O)(=O)C(F)(F)F)c1ccccc1)c1ccccc1)C(F)(F)F | 50.4 µM (inactive) | > 100 µM (inactive) | 46.8 µM (inactive) | 23.7 µM (inactive) | > 100 | 6.43 µM (inactive) | 28.2 µM (inactive) | 48.8 µM (inactive) | 17.3 µM (inactive) | 86.3 µM (inactive) | 44.3 µM (inactive) | 60.8 µM (inactive) | – | 32 µM (inactive) | > 100 µM (inactive) |
